The results in this text go back to PMC9863691, “A Novel Ferroptosis Inhibitor UAMC-3203, a Potential Treatment for Corneal Epithelial Wound” (Pharmaceutics, 2022).

The assay concerns alkali burn corneal wounds in ex vivo mouse eyes. As to the kind of experiment: corneal epithelial wound healing in ex vivo mouse eyes. Also noted: species or system C57BL/6 mice. To be noted: for initial wound area: 0–2 h after wound. From the text:
For the study, C57BL/6 mice (Laboratory Animal Centre, the University of Eastern Finland) were euthanized, and the eyes were excised carefully with sterile forceps and micro-scissors to avoid any damage to the cornea. The eyes were transported in ice-cold Dulbecco’s modified Eagle’s Medium/Ham’s F12 (DMEM/F-12, Gibco, Life Technologies, Carlsbad, CA, USA). Then the eyes were adhered to a Petri dish with tissue adhesive (3M Vetbond, St. Paul, MN, USA). The corneal epithelial wound was produced by placing an alkali soaked (0.5% sodium hydroxide) Whitman filter paper of 2 mm diameter on the corneal surface for 2 min, as reported earlier. After removal of the filter paper, the remaining epithelium on the alkali-exposed surface was carefully removed with a micro scalpel, and the eyes were rinsed with PBS. Pre-warmed UAMC-3203 (10 mL of 10 nM, 1µM, 10 µM, and 50 µM solutions) was added in serum-free media that was supplemented with 1% penicillin-streptomycin solution ([…], 0.1 mg/mL streptomycin) (Corning, Ref 30-002-CI, Mediatech Inc., Discovery Boulevard, Manassas, VA, USA) to the Petri dishes so that the eyes were submerged. The serum-free medium without UAMC-3203 was used as the negative control, and the medium with 10% FBS was used as the positive control. The samples were cultivated under standard tissue culture conditions (37 °C, 5% CO2-atmosphere, and 95% relative humidity) for 48 h. In order to measure the wound area, images were taken with a Zeiss Axio Scope A1 microscope (Carl Zeiss Microscopy GmbH, Oberkochen, Germany) at different time points (initial (in less than 2 h after wound), 6, 24, 30, and 48 h). For imaging, the media was removed from the dish, and 0.1% fluorescein (2 µL) was added to the corneal surface, followed by PBS (10 µL) to rinse excess fluorescein. A clean tissue was then used to soak excess fluorescein and PBS, and the medium was added again to the dish after imaging. The medium was changed after 24 h. The wound area was quantified with Fiji software.

`O=S(=O)(NCCN1CCNCC1)c1ccc(NC2CCCCC2)c(NCc2ccccc2)c1` [UAMC-3203] showed an initial wound area (10 nM) of 2.59 ± 0.27 mm^2, an initial wound area (1 µM) of 2.46 ± 0.42 mm^2 and an initial wound area (10 µM) of 2.44 ± 0.52 mm^2. For the same molecule, the “wound area at 48 h” value was found to be 0.22 ± 0.16 mm^2 (10 nM), 0.35 ± 0.3 mm^2 (1 µM) and 0.10 ± 0.21 mm^2 (10 µM). Further, the “wound area compared to negative control” value is “significantly lower wound area at 48 h” (10 nM, p = 0.03); “no notable difference at any time point” (1 µM); “significant difference in wound area at 24–48 h” (10 µM, p ≤ 0.005). The molecule also had a wound healing (10 nM–10 µM) above 85%. In addition, the “change of corneal epithelial wound area” value (50 µM) was “did not cause any changes in the corneal epithelial wound area”. In addition, the “optimal concentration for wound healing” value (ex vivo) turned out to be 10 µM.
